Laboratory results: patent publication US20130315940A1, “TREATMENT OF LIVER CANCER” (priority 2010, published 2013)
Entries after “also recorded” stand apart in the source; their conditions may differ.

Key:
Hepatocellular carcinoma = test: Chloroquine in a rodent model of HCC (DEN and NMOR); assay type: in vivo, fisher rats; details: for animals that developed evidence of hepatocellular carcinoma: Chloroquine 25 mg/kg/day with DEN and NMOR, weeks 8, 10 and 12 pooled
Procedure: 40 five weeks old male fisher rats were studied. They were divided into 2 groups, Group 1 contained 15 rats who were taking DEN and NMOR alone. […] The rats have been given 100 mg/kg DEN (Diethylnitrosamine) (sigma) once intraperitoneal. Nitosomorpholine (NMOR) was been supplied in water with concentration of 80 ppm.
Liver and blood were collected from the animals after 8, 10 and 12 weeks respectively. […] (Table 2)

[1] = system: HUCCT (cholangiocarcinoma); test: Cholangiocarcinoma implantation in immunodeficient NOD-SCID mice; assay type: in vivo; details: for tumour size: after 50 days, compared with control, chloroquine 25 mg/kg in water supply (p<0.001), IRS 954 50 μl i.p. once weekly (p<0.01)
Procedure: 12 NOD-SCID mice were injected intrahepatically with 5×10^6 cells of HUCCT (cholangiocarcinoma). […] After 50 days a mass was found subcutaneously.

[2] = system: HuH7 hepatocellular carcinoma cell line; test: Cell proliferation in culture (cell counting, Promega proliferation assay), HuH7; assay type: cell-based; details: FIG. 13A, HuH7, in the presence of cpg
Description: Using different techniques, manual cell counting, nucleo-counter machine and Promega proliferation assay. Using 10^4 […] 96 wells plate treat some of them with cpg (TLR9 stimulator; […] In Huh7, HepG2 and HUCCT

HCC = test: Animal model for HCC: DEN and NMOR treated Fisher rats plus norfloxacin; assay type: in vivo, Fisher rat; details: for fibrosis grade: DEN + NMOR + norfloxacin 20 mg/kg per day by gavage, 14 weeks treatment, end at 16th week
Procedure: We chose a Fisher Rat to be our model. We started with 18 Fisher rats, which were 5 weeks old on the beginning of the experiment. We divided them into 3 groups. They were acclimatised for one week before the experiment at room temperature […] and humidity 60%-65%. The first group used 6 Fisher rats as an HCC model. On the day we started we weighed them and determined the exact dose for each rat.
We started with a single dose of DEN (Diethylnitrosamine™, sigma) using 100 mg/kg as single intraperitoneal injection. Then we put NMOR (Nitrosomorpholine™, Sigma) in the concentration of 80 ppm in the water for 14 weeks. The second group, another 6 Fisher rats, got the same HCC model treatment (DEN and NMOR) plus we gavaged them with norfloxacin in the dose of 20 mg/kg per day. The third group, at the same time, was 6 rats with a control of just plain water. We weighed them every other day and stopped treatment on the 14th week, then left them for two more weeks until the 16th week. We noticed the two groups who took the DEN and NMOR didn't increase in weight at the same rate as the control.
When we started our experiment the rats average weights were 212-241 g in the 1st group, 225-260 g and 221-249 g in the 2nd and 3rd groups respectively. At the end of experiment for the groups that took the carcinogenecic treatment average weights were 328-353 g and 330-372 g respectively. For the control group the average weight was 430-478 g. […] Control group: Smooth bright outer surface of the liver.

CCN(CC)CCCC(C)Nc1ccnc2cc(Cl)ccc12 (centres unmarked) [Chloroquine]
animals that developed evidence of hepatocellular carcinoma (Hepatocellular carcinoma; untreated group 8/9, p<0.0001): 1/10
animals that developed evidence of hepatocellular carcinoma (Hepatocellular carcinoma; untreated group 89%): 10%
microscopic and macroscopic appearance of hepatocellular carcinoma (Hepatocellular carcinoma; FIG. 10, DEN and NMOR group administered chloroquine): not seen; also recorded: no cancer was apparent either microscopically or macroscopically
HCC in Chloroquine treated (Hepatocellular carcinoma; Week 8th, DEN & NMOR alone 2/3): 1/4
HCC in Chloroquine treated (Hepatocellular carcinoma; Week 10th, DEN & NMOR alone 3/3): 0/3
HCC in Chloroquine treated (Hepatocellular carcinoma; Week 12th, DEN & NMOR alone 3/3): 0/3
size of the nodules ([1]; FIG. 11B, compared with controls): significantly smaller
tumour size [1]: significant reduction
tumour size ([1]; listed as chloroquine): significantly less
inhibition of cpg associated proliferation [2]: significantly inhibited

CCn1cc(C(=O)O)c(=O)c2cc(F)c(N3CCNCC3)cc21 [norfloxacin]
fibrosis grade (HCC): 0-2
fibrosis grade (HCC; listed as Norfloxacin): minimal fibrosis
HCC development / tumour grade (HCC; DEN + NMOR + norfloxacin group (2nd group)): developed well-differentiated HCC except one
liver nodules (HCC; DEN, NMOR and Norfloxacin group versus DEN and NMOR group): less nodules than the first group
